Test results reported in ChEMBL document CHEMBL3045421, “5-Nitro-heteroarylidene analogs of 2-thiazolylimino-4-thiazolidinones as a novel series of antibacterial agents” (2013).
≈ marks a conversion by molar mass, not a printed value.

What was measured:
Assay type in all cases: functional
Helicobacter pylori [1] = assay: Antibacterial activity against Helicobacter pylori strain 3 assessed as diameter of growth inhibition zone at 32 ug/disk after 3-5 days by filter paper disk diffusion method; settings: read-out: DIZ
Escherichia coli = assay: microbe, parasite or virus in culture; settings: ATCC 8739, 24 h
Description: Antibacterial activity against Escherichia coli ATCC 8739 assessed as growth inhibition after 24 hr by microdilution method

Helicobacter pylori [2] = assay: Antibacterial activity against Helicobacter pylori strain 2 assessed as diameter of growth inhibition zone at 8 ug/disk after 3-5 days by filter paper disk diffusion method; settings: read-out: DIZ
Helicobacter pylori [3] = assay: Antibacterial activity against Helicobacter pylori strain 3 assessed as diameter of growth inhibition zone at 16 ug/disk after 3-5 days by filter paper disk diffusion method; settings: read-out: DIZ
Klebsiella pneumoniae = assay: microbe, parasite or virus in culture; settings: ATCC 10031, 24 h
Description: Antibacterial activity against Klebsiella pneumoniae ATCC 10031 assessed as growth inhibition after 24 hr by microdilution method

Helicobacter pylori [4] = assay: Antibacterial activity against Helicobacter pylori strain 2 assessed as diameter of growth inhibition zone at 32 ug/disk after 3-5 days by filter paper disk diffusion method; settings: read-out: DIZ
Pseudomonas aeruginosa = assay: microbe, parasite or virus in culture; settings: ATCC 9027, 24 h
Description: Antibacterial activity against Pseudomonas aeruginosa ATCC 9027 assessed as growth inhibition after 24 hr by microdilution method

Helicobacter pylori [5] = assay: Antibacterial activity against Helicobacter pylori strain 1 assessed as diameter of growth inhibition zone at 64 ug/disk after 3-5 days by filter paper disk diffusion method; settings: read-out: DIZ
Helicobacter pylori [6] = assay: Antibacterial activity against Helicobacter pylori strain 2 assessed as diameter of growth inhibition zone at 64 ug/disk after 3-5 days by filter paper disk diffusion method; settings: read-out: DIZ
Bacillus subtilis = assay: microbe, parasite or virus in culture; settings: ATCC 6633, 24 h
Description: Antibacterial activity against Bacillus subtilis ATCC 6633 assessed as growth inhibition after 24 hr by microdilution method

Helicobacter pylori [7] = assay: Antibacterial activity against Helicobacter pylori strain 3 assessed as diameter of growth inhibition zone at 8 ug/disk after 3-5 days by filter paper disk diffusion method; settings: read-out: DIZ
Staphylococcus aureus = assay: microbe, parasite or virus in culture; settings: ATCC 6538p, 24 h
Description: Antibacterial activity against Staphylococcus aureus ATCC 6538p assessed as growth inhibition after 24 hr by microdilution method

Helicobacter pylori [8] = assay: Antibacterial activity against Helicobacter pylori strain 3 assessed as diameter of growth inhibition zone at 64 ug/disk after 3-5 days by filter paper disk diffusion method; settings: read-out: DIZ
Helicobacter pylori [9] = assay: Antibacterial activity against Helicobacter pylori strain 1 assessed as diameter of growth inhibition zone at 16 ug/disk after 3-5 days by filter paper disk diffusion method; settings: read-out: DIZ
[10] = tested on: Staphylococcus epidermidis; assay: microbe, parasite or virus in culture; settings: ATCC 12228, 24 h
Description: Antibacterial activity against Staphylococcus epidermidis ATCC 12228 assessed as growth inhibition after 24 hr by microdilution method

Helicobacter pylori [11] = assay: Antibacterial activity against Helicobacter pylori strain 2 assessed as diameter of growth inhibition zone at 16 ug/disk after 3-5 days by filter paper disk diffusion method; settings: read-out: DIZ
Helicobacter pylori [12] = assay: Antibacterial activity against Helicobacter pylori strain 1 assessed as diameter of growth inhibition zone at 32 ug/disk after 3-5 days by filter paper disk diffusion method; settings: read-out: DIZ
Helicobacter pylori [13] = assay: Antibacterial activity against Helicobacter pylori strain 1 assessed as diameter of growth inhibition zone at 8 ug/disk after 3-5 days by filter paper disk diffusion method; settings: read-out: DIZ

Structure (SMILES) | zone of inhibition at 32 µg/disc (Helicobacter pylori [1]) [mm] | MIC (Escherichia coli) [µg/mL] | zone of inhibition at 8 µg/disc (Helicobacter pylori [2]) [mm] | zone of inhibition at 16 µg/disc (Helicobacter pylori [3]) [mm] | MIC (Klebsiella pneumoniae) [µg/mL] | zone of inhibition at 32 µg/disc (Helicobacter pylori [4]) [mm] | MIC (Pseudomonas aeruginosa) [µg/mL] | zone of inhibition at 64 µg/disc (Helicobacter pylori [5]) [mm] | zone of inhibition at 64 µg/disc (Helicobacter pylori [6]) [mm] | MIC (Bacillus subtilis) [µg/mL] | zone of inhibition at 8 µg/disc (Helicobacter pylori [7]) [mm] | MIC (Staphylococcus aureus) [µg/mL] | zone of inhibition at 64 µg/disc (Helicobacter pylori [8]) [mm] | zone of inhibition at 16 µg/disc (Helicobacter pylori [9]) [mm] | MIC [10] [µg/mL] | zone of inhibition at 16 µg/disc (Helicobacter pylori [11]) [mm] | zone of inhibition at 32 µg/disc (Helicobacter pylori [12]) [mm] | zone of inhibition at 8 µg/disc (Helicobacter pylori [13]) [mm]
COc1ccc(-c2csc(/N=C3\NC(=O)/C(=C/C4C(=O)Nc5ccccc54)S3)n2)cc1 (stereo unspecified) | 6 | 100 (≈ 223 µM) | 6 | 6 | > 100 | 6 | > 100 | 6 | 6 | > 100 | 6 | > 100 | 6 | 6 | 100 (≈ 223 µM) | 6 | 6 | 6
O=C1N/C(=N\c2nc3ccccc3s2)S/C1=C\C1C(=O)Nc2ccccc21 (stereo unspecified) | 6 | > 100 | 11 | 6 | > 100 | 16 | > 100 | 13 | 18 | > 100 | 6 | > 100 | 10 | 6 | > 100 | 13 | 10 | 6
O=C1N/C(=N\c2nc(-c3ccccc3)cs2)S/C1=C\c1ccc([N+](=O)[O-])o1 | 18 | > 100 | 10 | 15 | > 100 | 18 | > 100 | 20 | 23 | 50 (≈ 125 µM) | 13 | 50 (≈ 125 µM) | 20 | 13 | 25 (≈ 62.7 µM) | 12 | 15 | 10
COc1ccc(-c2csc(/N=C3\NC(=O)/C(=C/c4ccc([N+](=O)[O-])o4)S3)n2)cc1 | 19 | > 100 | 15 | 16 | > 100 | 19 | 100 (≈ 233 µM) | 14 | 20 | 12.5 (≈ 29.2 µM) | 12 | 25 (≈ 58.3 µM) | 26 | 10 | 12.5 (≈ 29.2 µM) | 17 | 12 | ≤ 6
O=C1N/C(=N\c2nc3ccccc3s2)S/C1=C\c1ccc([N+](=O)[O-])o1 | 30 | 3.12 (≈ 8.39 µM) | 22 | 28 | 6.25 (≈ 16.8 µM) | 26 | > 100 | 33 | 30 | 0.39 (≈ 1.05 µM) | 25 | 0.97 (≈ 2.6 µM) | 34 | 24 | 0.39 (≈ 1.05 µM) | 24 | 28 | 20
O=C1N/C(=N\c2nccs2)S/C1=C\c1ccc([N+](=O)[O-])s1 | 40 | > 100 | 25 | 35 | > 100 | 30 | > 100 | 45 | 34 | 0.78 (≈ 2.3 µM) | 33 | 1.56 (≈ 4.61 µM) | 45 | 40 | 0.39 (≈ 1.15 µM) | 28 | 42 | 36
O=C1N/C(=N\c2nc(-c3ccccc3)cs2)S/C1=C\c1ccc([N+](=O)[O-])s1 | – | > 100 | – | – | > 100 | – | > 100 | – | – | > 100 | – | > 100 | – | – | > 100 | – | – | –
COc1ccc(-c2csc(/N=C3\NC(=O)/C(=C/c4ccc([N+](=O)[O-])s4)S3)n2)cc1 | 30 | 100 (≈ 225 µM) | 30 | 25 | > 100 | 35 | > 100 | 30 | 39 | > 100 | 22 | > 100 | 35 | 25 | > 100 | 32 | 27 | 22
O=C1N/C(=N\c2nc3ccccc3s2)S/C1=C\c1ccc([N+](=O)[O-])s1 | – | > 100 | – | – | > 100 | – | > 100 | – | – | 0.78 (≈ 2.01 µM) | – | 0.39 (≈ 1 µM) | – | – | 0.19 (≈ 0.489 µM) | – | – | –
Cn1c(/C=C2\S/C(=N/c3nccs3)NC2=O)ccc1[N+](=O)[O-] | > 50 | 12.5 (≈ 37.3 µM) | > 50 | > 50 | 0.39 (≈ 1.16 µM) | > 50 | > 100 | > 50 | > 50 | 0.19 (≈ 0.567 µM) | > 50 | 0.78 (≈ 2.33 µM) | > 50 | > 50 | 0.19 (≈ 0.567 µM) | > 50 | > 50 | > 50
Cn1c(/C=C2\S/C(=N/c3nc(-c4ccccc4)cs3)NC2=O)ccc1[N+](=O)[O-] | 6 | > 100 | 6 | 6 | > 100 | 6 | > 100 | 6 | 6 | 50 (≈ 122 µM) | 6 | > 100 | 6 | 6 | 50 (≈ 122 µM) | 6 | 6 | 6
COc1ccc(-c2csc(/N=C3\NC(=O)/C(=C/c4ccc([N+](=O)[O-])n4C)S3)n2)cc1 | 6 | > 100 | 6 | 6 | 100 (≈ 227 µM) | 6 | > 100 | 6 | 6 | 50 (≈ 113 µM) | 6 | > 100 | 6 | 6 | 25 (≈ 56.6 µM) | 6 | 6 | 6
Cn1c(/C=C2\S/C(=N/c3nc4ccccc4s3)NC2=O)ccc1[N+](=O)[O-] | 26 | > 100 | 27 | 24 | 25 (≈ 64.9 µM) | 33 | > 100 | 32 | 35 | 12.5 (≈ 32.4 µM) | 22 | 25 (≈ 64.9 µM) | 30 | 26 | 25 (≈ 64.9 µM) | 29 | 29 | 23
O=C1N/C(=N\c2nccs2)S/C1=C\C1C(=O)Nc2ccccc21 (stereo unspecified) | 14 | > 100 | 12 | 10 | > 100 | 18 | > 100 | 15 | 20 | 6.25 (≈ 18.3 µM) | 10 | 25 (≈ 73 µM) | 15 | 12 | 12.5 (≈ 36.5 µM) | 14 | 13 | 10
O=C(O)c1cn(C2CC2)c2cc(N3CCNCC3)c(F)cc2c1=O [CIPROFLOXACIN] | – | – | – | – | 0.006 (≈ 0.0181 µM) | – | 0.39 (≈ 1.18 µM) | – | – | 0.19 (≈ 0.573 µM) | – | 0.19 (≈ 0.573 µM) | – | – | 0.097 (≈ 0.293 µM) | – | – | –
Cc1ncc([N+](=O)[O-])n1CCO [METRONIDAZOLE] | – | – | – | 14 | – | – | – | – | – | – | – | – | – | 14 | – | 14 | – | –
